According to patent publication US20240287154A1, “MC3R AGONIST PEPTIDES” (The Regents of the University of Michigan, priority 2021, published 2024):
Non-standard residues stand in square brackets, D forms with d. Residues, ends and D or L forms follow the SMILES beside them. Nle = CCCC[C@H](N)C(=O)O

Legend:
in vitro = conditions: for Mouse Plasma Stability, time point 0 min: pooled mouse plasma, 37° C.
Protocol: Pooled mouse plasma was prepared and stored at −80° C. prior to use. 396 μL mouse plasma was incubated at 37° C. for 5 minutes in 1.5 mL microcentrifuge tubes. 4 μL of 100 μM test or control compound/peptide was added to each tube and incubated for 0.5, 15, 30, 60, 120, or 240 minutes. An aliquot of 40 μL of each reaction was stopped by the addition of 4 volume of cold acetonitrile containing 200 ng/mL of Setmelanotide as an internal standard (IS). The incubation solution was centrifuged at 3500 rpm for 10 minutes to precipitate protein. The supernatant was used for LC/MS/MS analysis. The natural log peak area ratio (compound peak […] area/internal standard peak area) was plotted against time and the gradient of the line determined.

human MC3R = target: T1, human MC3R (Homo sapiens, UniProt P41968); assay: Intracellular cAMP levels in live cells, MC3R agonist activity; assay type: cell-based; conditions: cAMP split-luciferase reporter cell line stably expressing human MC3R; direct agonist effect, measurement window 1
T1 construct: expressed in transfected cells
T1 sequence (P41968 whole entry): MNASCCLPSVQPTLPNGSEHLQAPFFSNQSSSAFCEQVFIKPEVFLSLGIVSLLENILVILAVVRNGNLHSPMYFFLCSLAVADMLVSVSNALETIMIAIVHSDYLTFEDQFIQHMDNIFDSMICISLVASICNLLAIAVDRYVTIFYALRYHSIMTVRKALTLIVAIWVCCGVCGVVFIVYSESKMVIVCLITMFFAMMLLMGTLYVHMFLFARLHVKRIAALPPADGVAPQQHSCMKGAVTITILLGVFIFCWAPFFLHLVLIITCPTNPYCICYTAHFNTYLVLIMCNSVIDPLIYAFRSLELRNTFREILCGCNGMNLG

human MC4R = human MC4R (Homo sapiens, UniProt P32245); assay: Intracellular cAMP levels in live cells, MC3R selectivity relative to MC4R; assay type: cell-based; conditions: cAMP assays in human MC3R and human MC4R stable cell lines
Sequence of human MC4R (P32245 whole entry): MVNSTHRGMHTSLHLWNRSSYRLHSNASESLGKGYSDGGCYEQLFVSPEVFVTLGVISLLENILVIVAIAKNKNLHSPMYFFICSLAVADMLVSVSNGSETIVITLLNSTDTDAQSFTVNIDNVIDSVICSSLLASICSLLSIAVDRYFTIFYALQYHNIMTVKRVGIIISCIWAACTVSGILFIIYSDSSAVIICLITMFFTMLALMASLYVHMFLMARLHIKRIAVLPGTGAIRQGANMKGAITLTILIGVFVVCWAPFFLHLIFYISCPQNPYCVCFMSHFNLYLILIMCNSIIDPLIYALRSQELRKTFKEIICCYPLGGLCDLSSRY

SMILES | half-life at 1 µM (in vitro; mouse, plasma) [min] | remaining at 5 min, 1 µM (in vitro; mouse, plasma) [%] | remaining at 0.25 h, 1 µM (in vitro; mouse, plasma) [%] | remaining at 0.5 h, 1 µM (in vitro; mouse, plasma) [%] | Mouse Plasma Stability, time point 0 min (in vitro) [%] | EC50 (human MC3R) [nM] | MC3R selectivity (relative to MC4R) (human MC4R) | remaining at 1 h, 1 µM (in vitro; mouse, plasma) [%]
CCCC[C@H](NC(=O)[C@@H](NC(=O)[C@@H](N)Cc1ccc(O)cc1)C(C)C)C(=O)N[C@H](C)C(=O)N[C@@H](Cc1c[nH]cn1)C(=O)N[C@@H](Cc1ccccc1)C(=O)N[C@@H](CCCNC(=N)N)C(=O)N[C@H](Cc1c[nH]c2ccccc12)C(=O)N[C@@H](CC(=O)O)C(=O)N[C@H](CCCNC(=N)N)C(=O)N[C@@H](Cc1ccccc1)C(=O)NCC(=O)O [CTX-1126, Tyr-Val-Nle-D-Ala-His-Phe-Arg-D-Trp-Asp-D-Arg-Phe-Gly] (H-YV[Nle][dA]HFR[dW]D[dR]FG-OH) | 1.61 | 11.7 | 0.16 | 0.03 | 100 | 3 | 43 | 
CCCC[C@H](NC(=O)[C@@H](NC(=O)[C@@H](N)Cc1ccc(O)cc1)C(C)C)C(=O)N[C@H](C)C(=O)N[C@@H](Cc1c[nH]cn1)C(=O)N[C@@H](Cc1ccccc1)C(=O)N[C@@H](CCCNC(=N)N)C(=O)N[C@H](Cc1c[nH]c2ccccc12)C(=O)N[C@@H](CC(=O)O)C(=O)N[C@@H](CCCNC(=N)N)C(=O)N[C@H](Cc1ccccc1)C(=O)NCC(=O)O [CTX-1127, Tyr-Val-Nle-D-Ala-His-Phe-Arg-D-Trp-Asp-Arg-D-Phe-Gly] (H-YV[Nle][dA]HFR[dW]DR[dF]G-OH) | 1.28 | 6.71 | 0.25 | 0.27 | 100 | 2.5 | 95 | 0.04
